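GI50 = concentration required for 50% inhibition of growth. TGI: total growth inhibition.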
Tests used:
Assay in all cases: NCI tumour cell line growth inhibition, 384-well format
[1] = tested on: 786-0 renal
[2] = tested on: A498 renal
[3] = tested on: A549 NSCLC
[4] = tested on: ACHN renal
[5] = tested on: BT-549 breast
[6] = tested on: CAKI-1 renal
[7] = tested on: CCRF-CEM leukemia
[8] = tested on: COLO 205 colon
[9] = tested on: DU-145 prostate
[10] = tested on: EKVX NSCLC
[11] = tested on: HCC-2998 colon
[12] = tested on: HCT-15 colon
[13] = tested on: HL-60(TB) leukemia
[14] = tested on: HOP-62 NSCLC
[15] = tested on: HOP-92 NSCLC
[16] = tested on: HS 578T breast
[17] = tested on: HT29 colon
[18] = tested on: KM12 colon
[19] = tested on: LOX IMVI melanoma
[20] = tested on: M14 melanoma
[21] = tested on: MALME-3M melanoma
[22] = tested on: MCF7 breast
[23] = tested on: MDA-MB-231 breast
[24] = tested on: MDA-MB-435 melanoma
[25] = tested on: MDA-MB-468 breast
[26] = tested on: MOLT-4 leukemia
[27] = tested on: NCI-H23 lung
[28] = tested on: NCI-H322M lung
[29] = tested on: NCI-H460 NSCLC
[30] = tested on: NCI-H522 lung
[31] = tested on: NCI/ADR-RES ovarian
[32] = tested on: OVCAR-3 ovarian
[33] = tested on: OVCAR-4 ovarian
[34] = tested on: OVCAR-8 ovarian
[35] = tested on: PC-3 prostate
[36] = tested on: RPMI-8226 leukemia
[37] = tested on: RXF 393 renal
[38] = tested on: SF-268 CNS
[39] = tested on: SF-539 CNS
[40] = tested on: SK-MEL-2 melanoma
[41] = tested on: SK-MEL-28 melanoma
[42] = tested on: SK-MEL-5 melanoma
[43] = tested on: SK-OV-3 ovarian
[44] = tested on: SN12C renal
[45] = tested on: SNB-19 CNS
[46] = tested on: SNB-75 CNS
[47] = tested on: SR leukemia
[48] = tested on: T-47D breast
[49] = tested on: TK-10 renal
[50] = tested on: U251 glioblastoma
[51] = tested on: UACC-257 melanoma
[52] = tested on: UACC-62 melanoma

Work on `CCOC(=O)c1c(NN2CCN(CC(F)(F)F)CC2)oc(/C=C2\C=Nc3ncccc32)c1O` yielded a GI50 [1] of 3.39 µM, a TGI [1] of 8.44 µM and a GI50 [2] of 2.75 µM. For the same compound, the TGI [2] was over 100 µM, the GI50 [3] was 5.31 µM and the TGI [3] was over 100 µM. For the same compound, the GI50 [4] was 5.86 µM, the TGI [4] was over 100 µM and the GI50 [5] was 2.44 µM. For the same compound, the TGI [5] was 5.08 µM, the GI50 [6] was 3.83 µM and the TGI [6] was over 100 µM. The GI50 [7] was 0.911 µM, the TGI [7] was 2.31 µM and the GI50 [8] was 0.373 µM. For the same compound, the TGI [8] was 3.37 µM, the GI50 [9] was 3.08 µM and the TGI [9] was over 100 µM. For the same compound, the GI50 [10] was 7.51 µM, the TGI [10] was over 100 µM and the GI50 [11] was 1.61 µM. For the same compound, the TGI [11] was 6.01 µM, the GI50 [12] was 5.2 µM and the TGI [12] was over 100 µM. The GI50 [13] was 1.18 µM, the TGI [13] was 2.41 µM and the GI50 [14] was 2.86 µM. The TGI [14] was 9.4 µM, the GI50 [15] was over 100 µM and the TGI [15] was over 100 µM. For the same compound, the GI50 [16] was 1.55 µM, the TGI [16] was 3.21 µM and the GI50 [17] was 2.5 µM. For the same compound, the TGI [17] was over 100 µM, the GI50 [18] was 3.28 µM and the TGI [18] was 8.02 µM. It also gave a GI50 [19] of 3.14 µM, a TGI [19] of 9.61 µM and a GI50 [20] of 3.36 µM. The TGI [20] was 10.5 µM, the GI50 [21] was 3.05 µM and the TGI [21] was 9.54 µM. For the same compound, the GI50 [22] was 3.69 µM, the TGI [22] was 10.2 µM and the GI50 [23] was 5.8 µM. For the same compound, the TGI [23] was over 100 µM, the GI50 [24] was 10.8 µM and the TGI [24] was 29.4 µM. It also gave a GI50 [25] of 3.2 µM, a TGI [25] of 9.71 µM and a GI50 [26] of 1.88 µM. It also gave a TGI [26] of 3.37 µM, a GI50 [27] of 4.83 µM and a TGI [27] of 18.5 µM. It also gave a GI50 [28] of 4.05 µM, a TGI [28] of over 100 µM and a GI50 [29] of 2.23 µM. For the same compound, the TGI [29] was 4.4 µM, the GI50 [30] was 1.14 µM and the TGI [30] was over 100 µM. For the same compound, the GI50 [31] was over 100 µM, the TGI [31] was over 100 µM and the GI50 [32] was 2.82 µM. It also gave a TGI [32] of over 100 µM, a GI50 [33] of 96.1 µM and a TGI [33] of over 100 µM. It also gave a GI50 [34] of 5.48 µM, a TGI [34] of over 100 µM and a GI50 [35] of 3.64 µM. It also gave a TGI [35] of over 100 µM, a GI50 [36] of 1.96 µM and a TGI [36] of 4.22 µM. The GI50 [37] was 1.94 µM, the TGI [37] was 3.91 µM and the GI50 [38] was 4.06 µM. It also gave a TGI [38] of 11.6 µM, a GI50 [39] of 2.84 µM and a TGI [39] of 9.8 µM. The GI50 [40] was 2.62 µM, the TGI [40] was 4.86 µM and the GI50 [41] was 5.23 µM. The TGI [41] was 16.7 µM, the GI50 [42] was 2.67 µM and the TGI [42] was 14.9 µM. The GI50 [43] was 2.72 µM, the TGI [43] was over 100 µM and the GI50 [44] was 5.42 µM. The TGI [44] was over 100 µM, the GI50 [45] was 8.03 µM and the TGI [45] was over 100 µM. It also gave a GI50 [46] of 6.66 µM, a TGI [46] of 18.9 µM and a GI50 [47] of 0.222 µM. It also gave a TGI [47] of 0.488 µM, a GI50 [48] of over 100 µM and a TGI [48] of over 100 µM. It also gave a GI50 [49] of over 100 µM, a TGI [49] of over 100 µM and a GI50 [50] of 2.76 µM. The TGI [50] was over 100 µM, the GI50 [51] was 17.4 µM and the TGI [51] was 36.2 µM. For the same compound, the GI50 [52] was 2.12 µM and the TGI [52] was 3.96 µM.

— PubChem BioAssay (NCI)
